This is an account of results in article PMC7911516, “Investigation of the Factors Responsible for the Poor Oral Bioavailability of Acacetin in Rats: Physicochemical and Biopharmaceutical Aspects” (Pharmaceutics, 2021).

SMILES strings stand for the structures. Where two headings read alike, the source gives them in different places.

Details of data set [1]: method as in PMID 28421306. Conditions: oral, 5 mg/kg in mice; cited from earlier work.
A short description of data set [2]: Intravenous pharmacokinetic study in rats. Format: in vivo. As to the method: The rats were fasted overnight before the experiment and anesthetized using an intramuscular injection of zoletil at 20 mg/kg. The femoral artery and vein were cannulated with a polyethylene tube (Clay Adams, Parsippany, NJ, USA). Acacetin (dissolved in a vehicle composed of DMSO, ethanol, and PEG400 (10:5:85, v/v/v)) was administered intravenously (10 mg/kg) or orally (100 mg/kg) to rats. Approximately 250 μL of blood was collected via the femoral artery at 0, 2, 5, 15, 30, 45, 60, 120, and 180 min after intravenous administration and at 0, 2, 5, 15, 30, 45, 60, 90, 120, and 180 min after oral administration. The cannula was flushed with heparin (20 IU/mL in saline) at each time point to prevent blood clotting. Following centrifugation of the blood sample at 8000× g and 4 °C for 2 min, 120 μL of plasma was obtained. Urine was collected at 1-h intervals in an ice-cold container over 24 h. After urine collection at 24 h, each rat was sacrificed by cervical dislocation; the entire GI tract (including its contents and feces) was excised, transferred into a beaker containing 100 mL methanol, and cut into small pieces using scissors. After manual stirring with a glass rod for 1 min, a 50-μL aliquot of the supernatant was collected. The plasma, urine (Ae24h), and GI tract (GI24h) samples were stored at −80 °C until further LC-MS/MS analysis. A noncompartmental analysis (WinNonlin ver. 3.1; Certara USA Inc., Princeton, NJ, USA) was performed to determine the following pharmacokinetic parameters: the AUCinf, area under plasma concentration versus time curve from time zero to the last sampling time (AUClast), t1/2, total body clearance (CL), apparent volume of distribution at steady state (Vss), and absolute oral bioavailability (F). The Cmax and time to reach Cmax (Tmax) were directly obtained from the plasma concentration versus time data.

Data set [3] can be described thus: Parallel artificial membrane permeability assay (PAMPA). Type of data set: in vitro ADME. Conditions: GIT PAMPA Double Sink. As to the method:
Simulated intestinal fluid (SIF) was prepared by dissolving 3 mM sodium taurocholate and 0.1% (w/v) pancreatin in phosphate buffer (final pH = 7.0). The solubility of acacetin was measured by adding excessive amounts of acacetin into glass vials containing 1.5 mL of water, pH 7.4 phosphate buffer, SGF, and SIF. […] The samples were centrifuged at 16,000× g for 5 min, and the supernatant was passed through a 0.20-μm syringe filter to remove excess acacetin. Further, the concentration of acacetin in the filtrate was determined using the LC-MS/MS method. […] Finally, the acacetin concentrations in the octanol and water layers were determined using the LC-MS/MS method. […] The PAMPA was conducted using a commercially available PAMPA kit (GIT PAMPA Double Sink; pION Inc., Massachusetts, MA, USA) according to the manufacturer's protocol. The permeability was calculated using pION PAMPA Explorer ver. 3.8 software (pION Inc., Massachusetts, MA, USA).
Background: In PAMPA a lipid-coated filter parts donor from acceptor wells.

Details of data set [4]: method as in PMID 25456423. Conditions: oral, 1.4–1.676 mg/kg in rats; cited from earlier work.
Data set [5] in a line: In situ closed-loop study (jejunal loop). Type of data set: in vivo, rat. As for the experimental part:
The in situ closed-loop study was performed as previously described with slight modification. Briefly, after minimal abdominal incision under light ether anesthetization and sufficient washing of the contents within the GI tract, the jejunal loop was closed by ligation performed at approximately 2 cm distal to both ends of each jejunal section. Acacetin suspension (final concentration: 1 mg/mL) was prepared by dispersing acacetin powder in the vehicle solution for oral study and subsequently diluting it 5-fold with the SIF (final composition: 2% DMSO, 1% EtOH, and 17% PEG400 in the SIF). After injecting 0.2 mL of acacetin suspension into each loop using a l-mL 31-gauge syringe, the whole GI tract was carefully returned to its original position in the abdominal cavity. At 4 h after the injection, each loop was removed, transferred into a beaker containing 50 mL of methanol, and handled similar to the GI samples in the in vivo pharmacokinetic study. As control (in vitro isolated loop) groups, the jejunal closed-loop was prepared in the same manner as the in situ loop study, removed from the rat intestinal tract using scissors with special care not to damage the loop, and transferred to a glass beaker. Then, acacetin dispersed in the vehicle was injected into the isolated loop. After 0-h and 4-h incubation at 37 °C, the remaining fraction of acacetin in the isolated loop was measured in the same manner as the procedure for the GI sample in the in vivo pharmacokinetic study.

With `COc1ccc(-c2cc(=O)c3c(O)cc(O)cc3o2)cc1` [acacetin, Acacetin], in data set [1], the Cmax (commonly the maximum level reached in the sampled fluid or tissue) is 17 ng/mL and the F is 1.30%. Besides, in data set [2] (IV 10 mg/kg), the “Urinary and GI (including biliary) excretion of unchanged acacetin” value is recorded as 1.5–12.8 % of dose. The GI24h in data set [2] (IV 10 mg/kg, GI tract at 24 h) was 6.66 ± 5.34 % of dose. The Ae24h in data set [2] (IV 10 mg/kg, urine 24 h) is given as 2.50 ± 1.15 % of dose. The clearance in data set [2] (Sprague-Dawley, rat, blood (plasma CL divided by RB), IV 10 mg/kg, read-out: Total blood clearance (CL/RB)) came out at 191 ± 34 mL/min/kg. The clearance in data set [2] (rat, IV 10 mg/kg, total plasma clearance, read-out: CL) is 199 ± 36 mL/min/kg. In addition, in data set [2] (rat, plasma, IV 10 mg/kg), the AUC(0-inf) (as a rule, total exposure, with the tail of the curve extrapolated) is 855 ng·h/mL and the half-life – broadly, how long it takes for the measured level to halve – stood at 40.3 ± 7.2 min. For the same compound, in data set [2] (rat, plasma, IV 10 mg/kg, read-out: Vss), the Vd stood at 2.22 ± 0.507 L/kg. For the same compound, in data set [2] (speculated from blood clearance vs hepatic blood flow), the Hepatic extraction ratio was around 1. Moreover, the Papp (in general, a coefficient for how fast a substance crosses the barrier) in data set [3] was found to be 8.06 ± 0.91 ×10⁻⁶ cm/s. Also, in data set [4], the Cmax was 19.02 ng/mL. Further, in data set [5] (= 2.9 − 2.34), the “Fraction of dose eliminated by GI and hepatic first-pass metabolism” value was 0.56 % of the dose. Besides, the “Fraction unabsorbed from the GI tract” value in data set [5] (=100 − 2.9) is on record as 97.1 % of the dose. Moreover, the “Portion absorbed from the loop” value in data set [5] (difference isolated loop vs in situ loop) came out at 2.9%. Further, the “Remaining fraction in the in vitro isolated loop” value in data set [5] (jejunal loop, 4-h incubation at 37 °C) is recorded as 78.9%. For the same compound, the “Remaining fraction in the in situ loop” value in data set [5] (rat jejunal loop, 4 h after injection) turned out to be 76.0%.
